Experimental data taken from ChEMBL document CHEMBL5104148, “Discovery of derivatives from Spartina alterniflora-sourced moiety as xanthine oxidase inhibitors to lower uric acid” (Bioorg Med Chem Lett, 2022).

What was measured:
[1] = Cytotoxicity against human L02 cells assessed as reduction in cell viability incubated for 24 hrs by MTT assay; type: toxicity, cell-based
Mus musculus [2] = test: Anti-hyperuricemic activity against hypoxanthine and oteracil potassium induced hyperuricemia in Kunming mouse model assessed as uric acid level at 5 mg/kg, IG administered daily (reference value: 631.6 +/- 103.1 uM); type: functional
Mus musculus [3] = test: Anti-hyperuricemic activity against hypoxanthine and oteracil potassium induced hyperuricemia in Kunming mouse model assessed as alanine aminotransferase level at 5 mg/kg, IG administered daily (reference value: 28.05 +/- 8.478 U/L); type: functional
Mus musculus [4] = test: Anti-hyperuricemic activity against hypoxanthine and oteracil potassium induced hyperuricemia in Kunming mouse model assessed as total bilirubin level at 5 mg/kg, IG administered daily (reference value: 12.05 +/- 4.92 uM); type: functional
Mus musculus [5] = test: Anti-hyperuricemic activity against hypoxanthine and oteracil potassium induced hyperuricemia in Kunming mouse model assessed as blood urea nitrogen level at 5 mg/kg, IG administered daily (reference value: 53.09 +/- 1.937 mg/dl); type: functional
Mus musculus [6] = test: Anti-hyperuricemic activity against hypoxanthine and oteracil potassium induced hyperuricemia in Kunming mouse model assessed as creatinine level at 5 mg/kg, IG administered daily (reference value: 59.12 +/- 7.198 uM); type: functional
[7] = Elimination half life in rat at 3 mg/kg, po measured after 24 hrs; type: ADME, organism-based; settings: in vivo, read-out: beta t1/2 (converted)
[8] = Tmax in rat at 3 mg/kg, po measured after 24 hrs; type: ADME, organism-based; settings: in vivo
[9] = Cmax in rat at 3 mg/kg, po measured after 24 hrs; type: ADME, organism-based; design: time 24 hrs, dose 3 mg/kg, route po; settings: in vivo
[10] = AUC(0 to t) in rat at 3 mg/kg, po measured after 24 hrs; type: ADME, organism-based; design: dose 3 mg/kg, time 24 hrs, route po; settings: in vivo
[11] = AUC(0 to infinity) in rat at 3 mg/kg, po measured after 24 hrs; type: ADME, organism-based; design: dose 3 mg/kg, time 24 hrs, route po; settings: in vivo
[12] = Elimination half life in rat at 1 mg/kg, iv measured after 24 hrs; type: ADME, organism-based; settings: in vivo, read-out: beta t1/2 (converted)
[13] = Tmax in rat at 1 mg/kg, iv measured after 24 hrs; type: ADME, organism-based; settings: in vivo
[14] = Cmax in rat at 1 mg/kg, iv measured after 24 hrs; type: ADME, organism-based; design: time 24 hrs, dose 1 mg/kg, route iv; settings: in vivo
[15] = AUC(0 to t) in rat at 1 mg/kg, iv measured after 24 hrs; type: ADME, organism-based; design: dose 1 mg/kg, time 24 hrs, route iv; settings: in vivo
[16] = AUC(0 to infinity) in rat at 1 mg/kg, iv measured after 24 hrs; type: ADME, organism-based; design: dose 1 mg/kg, time 24 hrs, route iv; settings: in vivo
[17] = Clearance in rat at 1 mg/kg, iv measured after 24 hrs; type: ADME, organism-based; settings: in vivo
[18] = Volume of distribution in rat at 1 mg/kg, iv measured after 24 hrs; type: ADME, organism-based; settings: in vivo
[19] = Oral bioavailability in rat at 3 mg/kg measured after 24 hrs; type: ADME, organism-based; settings: in vivo
[20] = molecular target: Xanthine dehydrogenase/oxidase (Homo sapiens, UniProt P47989); test: Inhibition of xanthine oxidase (unknown origin) at 10 uM relative to control
Chain of Xanthine dehydrogenase/oxidase (P47989 whole entry): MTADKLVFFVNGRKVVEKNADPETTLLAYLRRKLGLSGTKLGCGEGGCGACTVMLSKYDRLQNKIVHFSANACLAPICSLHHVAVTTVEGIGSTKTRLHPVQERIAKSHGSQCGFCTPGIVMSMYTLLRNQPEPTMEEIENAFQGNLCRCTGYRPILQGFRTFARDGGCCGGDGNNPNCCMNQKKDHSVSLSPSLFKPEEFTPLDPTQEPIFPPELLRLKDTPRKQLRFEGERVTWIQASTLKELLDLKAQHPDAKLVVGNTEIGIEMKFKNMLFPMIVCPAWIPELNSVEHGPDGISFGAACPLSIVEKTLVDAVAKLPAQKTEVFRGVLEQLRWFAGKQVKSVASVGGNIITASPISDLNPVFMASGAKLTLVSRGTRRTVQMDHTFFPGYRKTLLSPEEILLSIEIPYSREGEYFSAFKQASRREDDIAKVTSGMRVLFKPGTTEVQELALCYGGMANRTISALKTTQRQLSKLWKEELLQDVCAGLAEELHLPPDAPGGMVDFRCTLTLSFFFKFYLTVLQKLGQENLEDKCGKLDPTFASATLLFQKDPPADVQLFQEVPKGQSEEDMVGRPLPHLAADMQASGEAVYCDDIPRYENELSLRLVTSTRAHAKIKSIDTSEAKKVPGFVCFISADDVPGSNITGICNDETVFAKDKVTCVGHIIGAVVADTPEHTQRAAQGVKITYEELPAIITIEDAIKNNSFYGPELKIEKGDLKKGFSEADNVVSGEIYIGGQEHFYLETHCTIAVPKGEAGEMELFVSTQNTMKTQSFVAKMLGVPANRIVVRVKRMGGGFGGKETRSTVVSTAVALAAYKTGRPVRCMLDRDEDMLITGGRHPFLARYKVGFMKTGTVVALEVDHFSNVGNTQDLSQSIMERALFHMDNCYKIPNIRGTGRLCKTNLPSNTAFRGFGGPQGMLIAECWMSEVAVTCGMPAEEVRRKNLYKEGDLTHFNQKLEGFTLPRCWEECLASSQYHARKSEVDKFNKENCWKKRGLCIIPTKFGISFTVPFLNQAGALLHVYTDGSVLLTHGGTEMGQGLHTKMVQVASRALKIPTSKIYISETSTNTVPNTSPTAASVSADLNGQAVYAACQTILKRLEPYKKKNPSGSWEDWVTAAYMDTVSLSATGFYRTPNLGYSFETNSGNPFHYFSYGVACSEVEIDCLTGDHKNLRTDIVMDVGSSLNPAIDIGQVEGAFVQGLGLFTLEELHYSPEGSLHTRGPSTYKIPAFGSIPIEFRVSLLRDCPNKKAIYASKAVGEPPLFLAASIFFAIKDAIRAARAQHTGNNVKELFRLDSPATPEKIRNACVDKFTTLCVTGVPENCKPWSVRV

Q: For `CCCCS(=O)(=O)Oc1ccc(/C=C/C(=O)Nc2ccccc2C)cc1OC`, which CC50 at 24 h [1] is on record?
A: 56.1 µM

Q: Which CC50 at 24 h [1] does the source give for `CCCCS(=O)(=O)Oc1ccc(/C=C/C(=O)Nc2ccc(Cl)cc2)cc1OC` here?
A: 81.2 µM

Q: With `CCCCS(=O)(=O)Oc1ccc(/C=C/C(=O)Nc2cccc(C)c2)cc1OC` as the compound, how does the CC50 at 24 h [1] read?
A: 33.6 µM

Q: For `COc1cc(/C=C/C(=O)Nc2cccc(C)c2)ccc1OS(=O)(=O)c1ccc(Cl)cc1`, which CC50 at 24 h [1] is on record?
A: 73.5 µM

Q: And the Activity (Mus musculus [2])?
A: 552.9 µM

Q: And the Activity (Mus musculus [3])?
A: 25.21 U/L

Q: And the Activity (Mus musculus [4])?
A: 8.296 µM

Q: And the Activity (Mus musculus [5])?
A: 33.45 mg/dL

Q: What about the Activity (Mus musculus [6]) of the same compound?
A: 45.88 µM

Q: For `CCCCS(=O)(=O)Oc1ccc(/C=C/C(=O)OCCC)cc1OC`, which CC50 at 24 h [1] is on record?
A: 61.8 µM

Q: With `CCCCS(=O)(=O)Oc1ccc(/C=C/C(=O)Nc2ccc(C)cc2)cc1OC` as the compound, how does the CC50 at 24 h [1] read?
A: 26.8 µM

Q: For `CCCCS(=O)(=O)Oc1ccc(/C=C/C(=O)Nc2ccccc2I)cc1OC`, which CC50 at 24 h [1] is on record?
A: 24.5 µM

Q: For `CCCCOC(=O)/C=C/c1ccc(OS(=O)(=O)CCCC)c(OC)c1`, which CC50 at 24 h [1] is on record?
A: 115 µM

Q: With `COc1cc(/C=C/C(=O)OCC(C)C)ccc1OS(=O)(=O)c1ccc(Cl)cc1` as the compound, how does the CC50 at 24 h [1] read?
A: 102 µM

Q: For `CCOC(=O)/C=C/c1ccc(OS(=O)(=O)c2ccc(Cl)cc2)c(OC)c1`, which CC50 at 24 h [1] is on record?
A: 137 µM

Q: For `COC(=O)/C=C/c1ccc(OS(=O)(=O)c2ccc(Cl)cc2)c(OC)c1`, which CC50 at 24 h [1] is on record?
A: 99.5 µM

Q: With `CCCOC(=O)/C=C/c1ccc(OS(=O)(=O)c2ccc(Cl)cc2)c(OC)c1` as the compound, how does the CC50 at 24 h [1] read?
A: 150 µM

Q: With `CCCCOC(=O)/C=C/c1ccc(OS(=O)(=O)c2ccc(Cl)cc2)c(OC)c1` as the compound, how does the CC50 at 24 h [1] read?
A: 14 µM

Q: With `COc1cc(/C=C/C(=O)Nc2ccc(I)cc2)ccc1OS(=O)(=O)c1ccc(Cl)cc1` as the compound, how does the CC50 at 24 h [1] read?
A: 39.4 µM

Q: Which CC50 at 24 h [1] does the source give for `CCCCS(=O)(=O)Oc1ccc(/C=C/C(=O)Nc2ccccc2)cc1OC` here?
A: 3.32 µM

Q: For `CCCCS(=O)(=O)Oc1ccc(/C=C/C(=O)OCC(C)C)cc1OC`, which CC50 at 24 h [1] is on record?
A: 63.8 µM

Q: For `CCCCS(=O)(=O)Oc1ccc(/C=C/C(=O)Nc2ccccc2Br)cc1OC`, which CC50 at 24 h [1] is on record?
A: 5 µM

Q: Which results are given for `CCCCS(=O)(=O)Oc1ccc(/C=C/C(=O)OCC)cc1OC`?
A: CC50 at 24 h [1]: 14.4 µM; Activity (Mus musculus [2]): 295 µM; Activity (Mus musculus [3]): 29.23 U/L; Activity (Mus musculus [4]): 8.557 µM; Activity (Mus musculus [5]): 30.48 mg/dL; Activity (Mus musculus [6]): 34.38 µM; half-life [7]: 79.2 min; Tmax [8]: 8.34 min; Cmax [9]: 1030 ng/mL; AUC(0-t) at 24 h [10]: 1620 ng·h/mL; AUC(0-inf) [11]: 1640 ng·h/mL; half-life [12]: 34.2 min; Tmax [13]: 6 min; Cmax [14]: 1930 ng/mL; AUC(0-t) at 24 h [15]: 847 ng·h/mL; AUC(0-inf) [16]: 851 ng·h/mL; clearance [17]: 19.8 mL/min/kg; Vd [18]: 0.996 L/kg; bioavailability [19]: 63.7%

Q: For `CCCCS(=O)(=O)Oc1ccc(/C=C/C(=O)Nc2ccc(CC)cc2)cc1OC`, which CC50 at 24 h [1] is on record?
A: 89 µM

Q: With `CCCCS(=O)(=O)Oc1ccc(/C=C/C(=O)OC)cc1OC` as the compound, how does the CC50 at 24 h [1] read?
A: 208 µM

Q: For `Oc1ncnc2[nH]ncc12` [ALLOPURINOL], which inhibition at 10 µM [20] is on record?
A: 45.6%

Q: What about the CC50 at 24 h [1] of the same compound?
A: 6.84 µM

Q: What about the Activity (Mus musculus [2]) of the same compound?
A: 309.2 µM

Q: What about the Activity (Mus musculus [3]) of the same compound?
A: 32.11 U/L

Q: And the Activity (Mus musculus [4])?
A: 10.36 µM

Q: What about the Activity (Mus musculus [5]) of the same compound?
A: 43.64 mg/dL

Q: What about the Activity (Mus musculus [6]) of the same compound?
A: 71.97 µM
